Legend:
[1] = test system: TNFα production by THP-1 cells; experiment: TNF-alpha production by macrophages (ELISA); assay type: cell-based, human; conditions: opsonized zymosan stimulation, 24 hours; average of n=4 experiments
Procedure: The human macrophage cell line, THP-1 is plated in a 12 well plate such that each well contains 1×10^6 cells in 2 mL of media containing 10% FCS. Opsonized zymosan is prepared by resuspending 20 mg of zymosan A in 2 mL of ddH2O and homogenizing until a uniform suspension is obtained. Homogenized zymosan is pelleted at 250 g and resuspended in 4 mL of human serum for a final concentration of 5 mg/mL. and incubated in a 37° C. water bath for 20 minutes to enable opsonization. Bay 11-7082 is prepared in DMSO at a concentration of 10^−2 M and serially diluted 10-fold to give a range of stock concentrations (10^−8 M to 10^−2 M) (J. Immunol. (2000) 165: 411-418; J. Immunol. (2000) 164: 4804-4811; J. Immunol Meth. (2000) 235 (1-2): 33-40).
THP-1 cells are stimulated to produce TNFα by the addition of 1 mg/mL opsonized zymosan. […]
After a 24 hour stimulation, supernatants are collected to quantify TNFα production. TNFα concentrations in the supernatants are determined by ELISA using recombinant human TNFα to obtain a standard curve. […] The dilution of Capture Antibody used is lot-specific and is determined empirically. […] Stop Solution (2 N H2SO4) is then added to the wells and a yellow colour reaction is read at 450 nm with A correction at 570 nm. Mean absorbance is determined from triplicate data readings and the mean background is subtracted. […]

[2] = test system: human fibroblasts; experiment: Screening assay for effect on cell proliferation (CYQUANT); assay type: cell-based; conditions: Fibroblast, 72 hours incubation, average of n=4 experiments
Procedure: Fibroblasts at 70-90% confluency are trypsinized, replated at 600 cells/well in media in 96-well plates and allowed to attachment overnight. Mitoxantrone is prepared in DMSO at a concentration of […] and diluted 10-fold to give a range of stock concentrations (10^−8 M to 10^−2 M). Drug dilutions are diluted 1/1000 in media and added to cells to give a total volume of 200 μL/well. Each drug concentration is tested in triplicate wells. Plates containing fibroblasts and mitoxantrone are incubated at 37° C. for 72 hours (In vitro toxicol. (1990) 3: 219; Biotech. Histochem. (1993) 68: 29; Anal. Biochem. (1993)213: 426).
To terminate the assay, the media is removed by gentle aspiration. A 1/400 dilution of CYQUANT 400× GR dye indicator (Molecular Probes; Eugene, Oreg.) is added to 1× Cell Lysis buffer, and 200 μL of the mixture is added to the wells of the plate. Plates are incubated at room temperature, protected from light for 3-5 minutes. Fluorescence is read in a fluorescence microplate reader at ˜480 nm excitation wavelength and ˜520 nm emission maxima. Inhibitory concentration of 50% (IC50) is determined by taking the average of triplicate wells and comparing average relative fluorescence units to the DMSO control. An average of n=4 replicate experiments is used to determine IC50 values. (IC50=20 nM for proliferation of human fibroblasts).

[3] = test system: nitric oxide production in RAW 264.7 cells; experiment: Nitric oxide production by macrophages (Greiss assay); assay type: cell-based, murine; conditions: Mus musculus, RAW264.7; IFNγ and LPS stimulation, 24 hours; average of n=4 experiments
Procedure: The murine macrophage cell line RAW 264.7 is trypsinized to remove cells from flasks and plated in individual wells of a 6-well plate. Approximately 2×10^6 cells are plated in 2 mL of media containing 5% heat-inactivated fetal bovine serum (FBS). RAW 264.7 cells are incubated at 37° C. for 1.5 hours to allow adherence to plastic. Mitoxantrone is prepared in DMSO at a concentration of 10^−2 M and serially diluted 10-fold to give a range of stock concentrations (10^−8 M to 10^−2 M). Media is then removed and cells are incubated in 1 ng/mL of recombinant murine IFNγ and 5 ng/mL of LPS with or without mitoxantrone in fresh media containing 5% FBS. Mitoxantrone is added to cells by directly adding mitoxantrone DMSO stock solutions, prepared earlier, at a 1/1000 dilution, to each well. Plates containing IFNγ, LPS plus or minus mitoxantrone are incubated at 37° C. for 24 hours (Chem. Ber. (1879) 12: 426; J. AOAC (1977) 60-594; Ann. Rev. Biochem. (1994) 63: 175).
At the end of the 24 hour period, supernatants are collected from the cells and assayed for the production of nitrites. […] Optical density is read immediately on microplate spectrophotometer at 562 nm absorbance. Absorbance over triplicate wells is averaged after subtracting background and concentration values are obtained from the nitrite standard curve (1 μM to 2 mM). […]

Row | IC50 [1] [µM] | Compound | IC50 [2] [µM] | IC50 [3] [µM]
1 | 0.81 | Cc1ccc(S(=O)(=O)/C=C/C#N)cc1 [Bay 11-7082] |  | 
2 |  | O=C1c2c(O)ccc(O)c2C(=O)c2c(NCCNCCO)ccc(NCCNCCO)c21 [Mitoxantrone, 9,10-Anthracenedione, 1,4-dihydroxy-5,8-bis((2-((2-hydroxyethyl)amino]ethyl]amino]-] | 0.02 | 0.927

Reference: patent US20040219214A1, “Tissue reactive compounds and compositions and uses thereof” (Angiotech International AG, priority 2002, published 2004)
